In patent US9610293B2, “Co-micronization product comprising ulipristal acetate” (LABORATOIRE HRA-PHARMA, priority 2012, dated 2017):

Tests used:
[1] = single dose of 30 mg within 120 hours following unprotected intercourse; cited from earlier work
[2] = chronic administration, 5 mg or 10 mg per day; cited from earlier work
[3] = In vitro dissolution of UPA from gelatin gel capsules (paddle device, European Pharmacopoeia §2.9.3, 900 ml); format: physicochemical; settings: 30 mg UPA capsule, 900 ml gastric pH buffer + 0.1% SDS, 37°C, 50 rpm, mean of 3
Experimental: The in vitro dissolution test can be carried out using any commercially available device comprising paddles. Example 1 hereinafter presents implementing conditions for determining the in vitro dissolution rate of a comicronizate according to the invention. Briefly, an amount of comicronizate representing 30 mg of active ingredient is placed in a gelatin gel capsule. This gel capsule is then placed in 900 ml of a medium buffered at gastric pH, comprising 0.1% of SDS, at 37±0.5° C., and subjected to stirring at 50 revolutions per minute (rpm) (speed of rotation of the paddles of the dissolution device).
For each comicronizate obtained, hard gelatin gel capsules containing an amount of comicronizate corresponding to 30 mg of UPA per capsule were prepared. The studies of in vitro dissolution of UPA as comicronizate were carried out using these capsules according to the European Pharmacopoeia in §2.9.3, using a paddle dissolution device. For each comicronizate, a gel capsule containing said comicronizate was placed in a bowl of the dissolution device containing 900 ml of a dissolution medium. The dissolution medium is an aqueous solution buffered at gastric pH and comprising 0.1% by weight of SDS. The conditions for carrying out the in vitro dissolutions are the following: • Paddle rotation speed: 50 revolutions per minute (rpm) • Temperature: 37° C.±0.5° C.
The dissolution of the UPA was monitored by spectrophotometry.
By way of control experiment, a gelatin gel capsule containing 30 mg of ulipristal acetate micronized alone (i.e. UPA micronized in the absence of any co-micronization excipient) was used.
For each comicronizate, the dissolution experiment was reproduced 3 times. […]

[4] = Pharmacokinetic study in rats (plasma UPA by LC/MS/MS); format: in vivo; settings: female, OFA(SD), rat, 4 mg UPA per kg, powder into the stomach, pooled plasma
Experimental: The pharmacokinetic study was carried out on female OFA(SD) rats weighing between 0.206 and 0.251 kg. The animals were deprived of food for 16 hours before the administration of the samples. The animals were placed in cages, the temperature of which was maintained between 20 and 25° C.; the day/night cycles were 12 h each (6 am-6 pm) and the air was conditioned using a ventilation system.
The samples tested are the following: • Comicronizate of ulipristal acetate/SDS, 1/1 ratio • Powder of ulipristal acetate micronized in the absence of any excipient (UPA micronized alone)
A predetermined amount of powder was administered by means of an oesophageal tube using a cannula. The powder was introduced into the stomach of each animal using a catheter. The dose administered corresponds to 4 mg of ulipristal acetate per kg.
Blood samples of 300 μl were taken from the (left or right) jugular of the rats. In order to avoid excessively high blood sampling, the rats were divided into 3 groups of 6 rats as follows:
The samples were collected on heparin tubes and then centrifuged within the hour for 7-8 min at 1600 g at 4° C. At each sampling time, the plasma of the 6 rats of the group is “pooled”.
The ulipristal acetate was assayed by LC/MS/MS under the following conditions: • Mobile phase: Methanol/distilled water (70/30, V/V)+1% acetic acid • Column: BDS Hypersil phenyl, 100×2.1 mm, 5 μm • Elution mode: isocratic • flow rate: 0.400 ml/min • Injection volume: 10.0 μl • Needle cleaning liquid: Acetonitrile/isopropanol/acetone (40/40/20, V/V/V) 2. Results

SMILES | Emergency contraceptive effect [1] | Effect on symptoms associated with uterine fibromas [2] | Percentage of UPA released relative to initial amount per gel capsule ([3]; t=0 min) [%] | Percentage of UPA released relative to initial amount per gel capsule ([3]; t=1 min) [%] | Percentage of UPA released relative to initial amount per gel capsule ([3]; t=5 min) [%] | Percentage of UPA released relative to initial amount per gel capsule ([3]; t=7.5 min) [%] | Percentage of UPA released relative to initial amount per gel capsule ([3]; t=10 min) [%] | Percentage of UPA released relative to initial amount per gel capsule ([3]; t=15 min) [%] | Percentage of UPA released relative to initial amount per gel capsule ([3]; t=20 min) [%] | Percentage of UPA released relative to initial amount per gel capsule ([3]; t=20 min, listed as Micronized UPA (in the absence of excipient)) [%] | Percentage of UPA released relative to initial amount per gel capsule ([3]; t=20 min, listed as ulipristal acetate which has been micronized in the absence of excipient) | Percentage of UPA released relative to initial amount per gel capsule ([3]; t=30 min) [%] | Percentage of UPA released relative to initial amount per gel capsule ([3]; t=45 min) [%] | Percentage of UPA released relative to initial amount per gel capsule ([3]; t=60 min) [%] | Tmax ([4]; oral) [h] | AUC(0-inf) ([4]; po, 4 mg/kg) [ng·h/mL] | AUC(0-t) ([4]; po, 4 mg/kg) [ng·h/mL] | Cmax ([4]; po, 4 mg/kg) [ng/mL]
CC(=O)O[C@]1(C(C)=O)CCC2C3CCC4=CC(=O)CCC4=C3[C@@H](c3ccc(N(C)C)cc3)C[C@@]21C (stereo partly drawn) [UPA, 17α-acetoxy-11β-[4-(N,N-dimethylamino)-phenyl]-19-norpregna-4,9-diene-3,20-dione] | makes it possible to prevent an unwanted pregnancy | significantly reduce the symptoms associated with uterine fibromas | – | – | – | – | – | – | – | – | – | – | – | – | – | – | – | –
CC(=O)O[C@]1(C(C)=O)CCC2C3CCC4=CC(=O)CCC4=C3[C@@H](c3ccc(N(C)C)cc3)C[C@@]21C (stereo partly drawn) [UPA micronized alone, 17α-acetoxy-11β-[4-(N,N-dimethylamino)-phenyl]-19-norpregna-4,9-diene-3,20-dione] | – | – | 0.0 | 0.0 | 5.5 | 15.00 | 22.30 | 30.00 | 34.30 | 34.30 | approximately 35% | 39.50 | 47.50 | 53.80 | 1.25 | 1380 | 1340 | 447
